{
  "source": "patent US20240382451A1",
  "about": "“ORGANONITRO AND SULFOXYALKYL ORGANONITRO COMPOUNDS FOR USE IN TREATING MEDICAL DISORDERS” (EpicentRx, Inc., priority 2021, published 2024)",
  "key": {"[1]": {"test_system": "3×Tg-AD mice", "assay": "Oxidative stress markers and amyloid plaque density in aged 3×Tg-AD mice", "type": "in vivo, mouse", "details": "2 mg/kg intraperitoneal once weekly for 3 months", "experimental": "(§1) The neuroprotective effects of RRx-001 administration on Alzheimer's Disease (AD), which has been linked to aberrant NLR family pyrin domain containing 3 (NLRP3) activation, were evaluated via intraperitoneal injection once weekly for 3 months on aged (18-21 months old) homozygous triple transgenic AD mouse model (3×Tg-AD, Jackson Labs). 3×Tg mice received either 2 mg/kg RRx-001 (n=3) or vehicle (n=3), and were evaluated against control non-transgenic mice (NonTg, Jackson Labs) that were untreated (n=3)."}, "[2]": {"test_system": "bone marrow derived macrophages (BMDMs)", "assay": "LPS-primed bone marrow derived macrophages: cytokine expression, IL-1β release, cytosolic Ca2+", "type": "cell-based", "details": "BMDMs primed with LPS 50 ng/mL for 30 minutes, then 0.5 μM RRx-001 for 4 hours", "experimental": "Bone marrow derived macrophages (BMDMs) were primed with LPS (50 ng/mL) for 30 minutes before being treated with RRx-001 (0.5 μM) for 4 hours. FIG. 4A depicts the expression levels of IFN-γ, IL-12, TNF-α, and IL-1β from the three groups: (i) control (not primed with LPS), (ii) LPS+vehicle (primed with LPS but not treated with RRx-001), (iii) and LPS+RRx-001 (primed with LPS and treated with RRx-001). FIG. 4B depicts IL-1β release over time from the three groups. FIG. 4C depicts cytosolic Ca^2+ levels over time for the three groups."}, "[3]": {"test_system": "C57BL/6 mice", "assay": "Dextran sulfate sodium (DSS) induced colitis in mice", "type": "in vivo, mouse", "details": "2% or 4% DSS for 9 days, 5 or 10 mg/kg", "from_the_text": "Colitis was induced in C57BL/6 mice with 2% or 4% dextran sulfate sodium (DSS; 40 kDa) dissolved in drinking water given ad libitum for 9 days. Control mice were given filtered water. FIG. 6A depicts changes in mice body weight over a 9-day period for each of the three groups: (i) control (filtered water), (ii) 2% DSS, and (iii) 4% DSS. FIG. 6B depicts colon length of mice in each group after the 9-day period.\nFIGS. 7A and 7B depict changes in mice body weight over a 9-day period for each of the six groups: (i) 2% DSS+vehicle, (ii) 2% DSS+RRx-001 (5 mg/kg), and (iii) 2% DSS+RRx-001 (10 mg/kg) in FIG. 7A; and (iv) 4% DSS+vehicle, (v) 4% DSS+RRx-001 (5 mg/kg), and (vi) 4% DSS+RRx-001 (10 mg/kg) in FIG. 7B. While the 2% or 4% DSS was given ad libitum for 9 days as described above, vehicle, 5 mg/kg RRx-001, or 10 mg/kg RRx-001 was given as intravascular injections of pre-mixed blood formulations every other day during the 9-day period. […] FIGS. 7C and 7D depict colon length of mice in each of the six groups. […] FIGS. 7E and 7F depict serum IL-1β levels in mice in each of the six groups. […] FIGS. 7G and 7H depict colon homogenate IL-1β levels in mice in each of the six groups. FIGS. 7I and 7J depict colon homogenate IL-1β levels relative to the average IL-1β level of the control (i.e., DSS+vehicle) in mice in each of the six groups.\nFIGS. 8A and 8B depict the changes in mice body weight over the 9-day period for each of the six groups: (i) 2% DSS+vehicle. (ii) 2% DSS+RRx-001 (5 mg/kg), and (iii) 2% DSS+RRx-001 (10 mg/kg) in FIG. 8A; and (iv) 4% DSS+vehicle, (v) 4% DSS+RRx-001 (5 mg/kg), and (vi) 4% DSS+RRx-001 (10 mg/kg) in FIG. 8B. While the 2% or 4% DSS was given ad libitum for 9 days as described above, vehicle, 5 mg/kg RRx-001, or 10 mg/kg RRx-001 was given as intraperitoneal injections every other day during the 9-day period. […] FIGS. 8C and 8D depict colon length of mice in each of the six groups. […] FIGS. 8E and 8F depict serum IL-1β levels in mice in each of the six groups. […] FIGS. 8G and 8H depict colon homogenate IL-1β levels in mice in each of the six groups."}, "[4]": {"test_system": "3×Tg-AD mice", "assay": "Morris water maze test in aged triple transgenic Alzheimer's disease mouse model", "type": "in vivo", "details": "2 mg/kg intraperitoneal once weekly for 3 months", "experimental": "as §1\nFive days after the last treatment, the mice were tested using a Morris water maze test. The next week, the mice were exposed to an elevated maze test. The latency to reach the exact hidden platform location on the Morris water maze test (FIG. 1A) and the number of crossings of the platform target quadrant (FIG. 1B) were recorded."}, "[5]": {"test_system": "bone marrow derived macrophages (BMDMs)", "assay": "DSS-primed bone marrow derived macrophages: IL-1β release", "type": "cell-based", "details": "BMDMs primed with DSS, 0.5 μM or 1.0 μM RRx-001", "experimental": "FIG. 5 depicts IL-1β release from the four groups of bone marrow derived macrophages (BMDMs): (i) control (not primed with DSS). (ii) DSS+vehicle (primed with DS but not treated with RRx-001), (iii) DSS+RRx-001 (0.5 μM; primed with DSS and treated with 0.5 μM RRx-001), and (iv) DSS+RRx-001 (1.0 μM; primed with DSS and treated with 1.0 μM RRx-001)."}, "[6]": {"details": "intraperitoneal injections every other day"}, "[7]": {"details": "intravascular injections of pre-mixed blood formulations every other day"}},
  "data": [
    {"smiles": "O=C(CBr)N1CC([N+](=O)[O-])([N+](=O)[O-])C1", "note": "[RRx-001, 2-bromo-1-(3,3-dinitroazetidin-1-yl)ethanone]", "values": [
      {"measurement": "amyloid plaque density", "setting": "[1]", "result": "decrease"},
      {"measurement": "lipid peroxidation (thiobarbituric acid-reactive substance (TBAR) levels)", "setting": "[1]", "result": "decrease"},
      {"measurement": "reduced glutathione (GSH) compared to glutathione disulfide (GSSG)", "setting": "[1]", "result": "significant increase"},
      {"measurement": "calcium accumulation in activated macrophages (cytosolic Ca2+ levels)", "setting": "[2]", "result": "prevents calcium accumulation"},
      {"measurement": "inflammation-driven expression of certain cytokines such as IL-1β", "setting": "[2]", "result": "significantly reduces"},
      {"measurement": "DSS-induced expression of colon homogenate IL-1β", "setting": "[3]; [6]", "result": "reduces"},
      {"measurement": "DSS-induced expression of serum IL-1β", "setting": "[3]; [6]", "result": "reduces"},
      {"measurement": "body weight loss due to DSS induced colitis", "setting": "[3]; [6]", "result": "significantly mitigates"},
      {"measurement": "colon length reduction due to DSS induced colitis", "setting": "[3]; [6]", "result": "mitigates"},
      {"measurement": "DSS-induced expression of colon homogenate IL-1β", "setting": "[3]; [7]", "result": "reduces"},
      {"measurement": "DSS-induced expression of serum IL-1β", "setting": "[3]; [7]", "result": "reduces"},
      {"measurement": "body weight loss due to DSS induced colitis", "setting": "[3]; [7]", "result": "significantly mitigates"},
      {"measurement": "colon length reduction due to DSS induced colitis", "setting": "[3]; [7]", "result": "mitigates"},
      {"measurement": "spatial learning tasks (trend in latency across trials)", "setting": "[4]", "result": "improvement"},
      {"measurement": "latency to locate the platform on the Morris water maze test", "setting": "[4]; vs vehicle", "result": "significantly reduce"},
      {"measurement": "inflammatory effect of DSS (IL-1β release)", "setting": "[5]", "result": "significantly reduces"}
    ]}
  ]
}
